Reference: publication PMC9564337, “Development of a Neurotensin-Derived ^68Ga-Labeled PET Ligand with High In Vivo Stability for Imaging of NTS1 Receptor-Expressing Tumors” (Cancers, 2022)
Blank lines part the entries; values can stand above or below the compound they belong to.

What was measured:
in vivo = conditions: female, NMRI nude (nu/nu), mouse, total radioactivity; for tissue to tissue ratio at 0.75 h: iv, tumor-to-muscle ratio
Description: (§1) 8–12 weeks old female NMRI nude (nu/nu) mice (body weight 22–32 g) (Charles River, Sulzfeld, Germany) were kept under specified pathogen free (SPF) conditions at 23 °C, 55% relative humidity and a 12 h light/dark cycle in the central animal facility of the University of Regensburg using type III cages from Tecniplast (Hohenpeißenberg, Germany). The animals took food (Ssniff, Soest, Germay) and autoclaved tap water ad libitum. For tumor cell implantation, the culture medium of HT-29 cells was removed, the cells were detached from the culture flask by incubation for 2 min in trypsin-EDTA and the suspension was centrifuged (5 min, rt, 164 g). The supernatant was removed, and the cell pellet was washed twice with sterile PBS or serum-free medium (5–6 mL). The cells were resuspended in sterile PBS to a final density of 1 × 10^7 cells/mL. Mice were injected subcutaneously into the right flank with the HT-29 cell suspension (100 µL). After 2–4 weeks, when the tumors had reached a size of 50–500 mm^3, animals were used for biodistribution and PET/computed tomography (CT) imaging studies (note: for PET/CT studies, the tumor size was at least 200 mm^3).
(§2) Aliquots of the tracer stock were diluted in PBS to give a volume of 200 µL. 80–100 µL (0.9–5.9 MBq) of this solution were injected into anesthetized HT-29 tumor-bearing nude mice via the tail vein. Animals were kept on a heating plate (set to 40 °C) or a pre-heated (ca. 45 °C) gel cushion and were killed by cardiac puncture 10 min, 25 min or 45 min p.i. immediately followed by taking blood, urine and tissue (i.e., tumor, kidney, liver, gall bladder, spleen, small intestine, heart, lung, brain, pancreas, femur and muscle) samples. Radioactivity measurement of the samples was performed with the Canberra Genie 2000 system described for the determination of the distribution coefficient logD7.4. Decay-corrected measured activities (cpm) were converted into activities (MBq) on the basis of an activity measurement with a ^68Ge-calibration standard source (Eckert&Ziegler, Berlin, Germany). Sample activities were converted to percentage of injected dose per gram tissue (%ID/g). Blocking experiments were performed by co-injection of the tracer with NTS1R ligand 48 (ca. 700 nmol per mouse). Mice were killed 45 min p.i. and analyzed as described above. The animals used for the 45-min biodistribution experiments were the same as used for the PET/CT imaging studies.

[1] = tested on: HT-29 tumor-bearing nude mice; assay: in vivo; conditions: mouse
Description: as §1, §2

physchem = format: physicochemical; conditions: pH 7.4
Description: The distribution coefficients logD7.4 of the radiotracers [^68Ga]21, [^68Ga]33, [^68Ga]37 and [^68Ga]56 were determined by adding a solution of the tracer in PBS (100 μL, ca. 0.20–0.34 MBq) to a mixture of n-octanol (500 μL) and PBS (pH 7.4) (400 μL) in a 2-mL HPLC vial (Agilent, article number 5182-0714) with a screw cap equipped with a septum (Agilent, article number 5182-0717). After vortexing the mixture for 2 min, two 100 μL aliquots of the upper phase (n-octanol) were taken. To obtain a sample of the lower phase (PBS), the HPLC vial was held upside down and approximately 100–150 µL of the aqueous phase were removed using a syringe equipped with a canula and collected in a reaction vessel. Two 10 µL aliquots of the aqueous phase were subjected to measurement. The activity of the aliquots was measured with a Canberra Genie 2000 system (Canberra, Rüsselsheim, Germany) using the Gamma Acquisition & Analysis Software Genie 2000 3.4.1. Experiments were performed in triplicate. The decay-corrected counts per minute (cpm) values were averaged (n = 3) and transformed to a distribution coefficient logD7.4 according to logD7.4 = log(Aoctanol/Aaqueous), where Aoctanol is the mean of the decay-corrected cpm values obtained for samples of the n-octanol phase, and Aaqueous is the mean of the decay-corrected cpm values obtained for samples of the aqueous phase.

[2] = Uptake (%ID/g) gall bladder (bile)
[3] = female, NMRI nude (nu/nu), 0.75 h

tissue to tissue ratio at 0.75 h (in vivo): 4.1 ± 1.7
tissue uptake at 0.75 h (in vivo; Uptake (%ID/g) blood): 1.3 ± 0.29 %ID/g
tissue uptake at 0.75 h (in vivo; [2]): 2 ± 0.14 %ID/g
tissue uptake at 0.75 h (in vivo; Uptake (%ID/g) kidney): 10 ± 0.96 %ID/g
tissue uptake at 0.75 h (in vivo; Uptake (%ID/g) liver): 16 ± 2.2 %ID/g
tissue uptake at 0.75 h (in vivo; Uptake (%ID/g) muscle): 0.41 ± 0.17 %ID/g
tissue uptake at 0.75 h (in vivo; Uptake (%ID/g) tumor): 1.5 ± 0.22 %ID/g
tumor-to-muscle ratio [1]: 4.1
logD (physchem): -2.48
SMILES: CN[C@@H](CCCNC(N)=NC(=O)NCCOCCOCCNC(=O)[C@@H](Cc1ccc(-c2ccc(F)cc2)cc1)NC(=O)CCCCCNC(=O)CN1CCN(CC(=O)O)CCN(CC(=O)O)CCN(CC(=O)O)CC1)C(=O)N[C@@H](CCCNC(=N)N)C(=O)N1CCC[C@H]1C(=O)N[C@@H](Cc1ccc(O)cc1)C(=O)N[C@H](C(=O)N[C@@H](CC(C)C)C(=O)O)C(C)(C)C [[^68Ga]33, metal not drawn]

tissue to tissue ratio at 0.75 h (in vivo): 3.4 ± 0.71
tissue uptake at 0.75 h (in vivo; [2]): 1.9 ± 0.34 %ID/g
tissue uptake at 0.75 h (in vivo; Uptake (%ID/g) kidney): 7.6 ± 0.39 %ID/g
tissue uptake at 0.75 h (in vivo; Uptake (%ID/g) liver): 4.1 ± 0.79 %ID/g
tissue uptake at 0.75 h (in vivo; Uptake (%ID/g) muscle): 0.5 ± 0.18 %ID/g
tissue uptake at 0.75 h (in vivo; Uptake (%ID/g) tumor): 1.6 ± 0.19 %ID/g
tumor-to-muscle ratio [1]: 3.4
logD (physchem): -2.59
SMILES: CN[C@@H](CCCNC(N)=NC(=O)NCCOCCOCCNC(=O)[C@@H](Cc1ccc(-c2ccc(F)cc2)cc1)NC(=O)CN1CCN(CC(=O)O)CCN(CC(=O)O)CCN(CC(=O)O)CC1)C(=O)N[C@@H](CCCNC(=N)N)C(=O)N1CCC[C@H]1C(=O)N[C@@H](Cc1ccc(O)cc1)C(=O)N[C@H](C(=O)N[C@@H](CC(C)C)C(=O)O)C(C)(C)C [[^68Ga]37, metal not drawn]

tissue uptake at 10 min (in vivo; Uptake (%ID/g) blood): 3.1 ± 0.34 %ID/g
tissue uptake at 25 min (in vivo; Uptake (%ID/g) blood): 2.9 ± 1.3 %ID/g
tissue uptake at 0.75 h (in vivo; Uptake (%ID/g) blood): 1.3 ± 0.33 %ID/g
tissue uptake at 10 min (in vivo; Uptake (%ID/g) brain): 0.079 ± 0.017 %ID/g
tissue uptake at 25 min (in vivo; Uptake (%ID/g) brain): 0.13 ± 0.11 %ID/g
tissue uptake at 0.75 h (in vivo; Uptake (%ID/g) brain): 0.061 ± 0.049 %ID/g
tissue uptake at 10 min (in vivo; Uptake (%ID/g) femur): 0.95 ± 0.25 %ID/g
tissue uptake at 25 min (in vivo; Uptake (%ID/g) femur): 0.78 ± 0.27 %ID/g
tissue uptake at 0.75 h (in vivo; Uptake (%ID/g) femur): 0.73 ± 0.29 %ID/g
tissue uptake at 10 min (in vivo; [2]): 1.1 ± 0.71 %ID/g
tissue uptake at 25 min (in vivo; [2]): 1.9 ± 0.79 %ID/g
tissue uptake at 10 min (in vivo; Uptake (%ID/g) heart): 1.2 ± 0.1 %ID/g
tissue uptake at 25 min (in vivo; Uptake (%ID/g) heart): 1.3 ± 0.49 %ID/g
tissue uptake at 0.75 h (in vivo; Uptake (%ID/g) heart): 0.72 ± 0.36 %ID/g
tissue uptake at 10 min (in vivo; Uptake (%ID/g) intestine): 1.8 ± 0.22 %ID/g
tissue uptake at 25 min (in vivo; Uptake (%ID/g) intestine): 2.4 ± 0.68 %ID/g
tissue uptake at 10 min (in vivo; Uptake (%ID/g) kidney): 47 ± 3.4 %ID/g
tissue uptake at 25 min (in vivo; Uptake (%ID/g) kidney): 47 ± 7 %ID/g
tissue uptake at 0.75 h (in vivo; Uptake (%ID/g) kidney): 55 ± 28 %ID/g
tissue uptake at 10 min (in vivo; Uptake (%ID/g) liver): 7.2 ± 0.83 %ID/g
tissue uptake at 25 min (in vivo; Uptake (%ID/g) liver): 5.7 ± 1.6 %ID/g
tissue uptake at 10 min (in vivo; Uptake (%ID/g) lung): 2.4 ± 0.3 %ID/g
tissue uptake at 25 min (in vivo; Uptake (%ID/g) lung): 2.8 ± 1.5 %ID/g
tissue uptake at 0.75 h (in vivo; Uptake (%ID/g) lung): 1.2 ± 0.34 %ID/g
tissue uptake at 10 min (in vivo; Uptake (%ID/g) muscle): 1.1 ± 0.18 %ID/g
tissue uptake at 25 min (in vivo; Uptake (%ID/g) muscle): 0.57 ± 0.23 %ID/g
tissue uptake at 0.75 h (in vivo; Uptake (%ID/g) muscle): 0.55 ± 0.23 %ID/g
tissue uptake at 10 min (in vivo; Uptake (%ID/g) pancreas): 1.3 ± 0.83 %ID/g
tissue uptake at 25 min (in vivo; Uptake (%ID/g) pancreas): 1.1 ± 1.1 %ID/g
tissue uptake at 0.75 h (in vivo; Uptake (%ID/g) pancreas): 0.9 ± 0.57 %ID/g
tissue uptake at 10 min (in vivo; Uptake (%ID/g) spleen): 2.5 ± 0.25 %ID/g
tissue uptake at 25 min (in vivo; Uptake (%ID/g) spleen): 2.6 ± 0.6 %ID/g
tissue uptake at 10 min (in vivo; Uptake (%ID/g) tumor): 3.6 ± 0.2 %ID/g
tissue uptake at 25 min (in vivo; Uptake (%ID/g) tumor): 7.3 ± 1.8 %ID/g
Uptake (%ID/g) blood [1, 3]: 1.4 ± 1.0 %ID/g
Uptake (%ID/g) brain [1, 3]: 0.10 ± 0.074 %ID/g
Uptake (%ID/g) femur [1, 3]: 0.65 ± 0.43 %ID/g
Uptake (%ID/g) heart [1, 3]: 0.60 ± 0.44 %ID/g
Uptake (%ID/g) kidney [1, 3]: 53 ± 27 %ID/g
Uptake (%ID/g) muscle [1, 3]: 0.68 ± 0.61 %ID/g
Uptake (%ID/g) pancreas [1, 3]: 0.51 ± 0.37 %ID/g
logD (physchem): -3.06
SMILES: CC[C@H](C)[C@H](NC(=O)[C@@H](NC(=O)[C@@H]1CCCN1C(=O)[C@H](CCCNC(=N)N)NC(=O)[C@H](CCCNC(N)=NC(=O)NCCCCNC(=O)CN1CCN(CC(=O)O)CCN(CC(=O)O)CCN(CC(=O)O)CC1)NC)C(C)(C)c1ccc(O)cc1)C(=O)N[C@@H](CC(C)C)C(=O)O [[^68Ga]56, metal not drawn]
